Experimental data: US20240252463A1, “METHODS OF TREATING FIBROTIC PATHOLOGIES” (Mayo Foundation for Medical Education and Research, priority 2018, published 2024)

Test system: bleomycin-induced pulmonary fibrosis
Experiment: Bleomycin Mouse Study, dihydrexidine treatment
Assay type: in vivo
Method: Bleomycin Mouse Study: In the initial in vivo siRNA study (FIG. 5), adult male age-matched C57BL/6N mice at 6-8 weeks of age were purchased from the National Cancer Institute (NCI)-Frederick Mouse Repository (Frederick, MD, USA). All experiments were performed in accordance with National Institute of Health guidelines and protocols approved by the Massachusetts General Hospital Subcommittee on Research Animal Care, and maintained all mice in a specific pathogen-free (SPF) environment certified by the American Association for Accreditation of Laboratory Animal Care (AAALAC). 6-8 weeks old mice were anesthetized with ketamine and xylazine before exposure of the trachea. Lung fibrosis was induced by intratracheal injection of bleomycin (50 μl at 1.2 U/kg) or phosphate buffered saline (PBS; as control) on day 0. After 14 days Small interfering RNA (siRNA) duplexes targeting mouse Yap (L-046247-01-0005) or Taz (L-058248-01-0005) mRNA (Dharmacon) or nontargeting control siRNA were administered in vivo by intratracheal instillation at a single dose of 25 μg (each siRNA) per mouse. On day 21 Mice were sacrificed and lungs harvested for collagen determination and biochemical analyses. To obtain BAL samples for total protein concentration determination, lungs were lavaged with six 0.5-ml aliquots of PBS. BAL samples were centrifuged at 3,000 g for 20 min at 4° C. and transferred the supernatants to siliconized low-binding Eppendorf tubes (PGC Scientifics) for subsequent analysis. Total protein concentration of the BAL fluid was determined by BCA Protein Assay Kit (Pierce). In the dihydrexidine treatment studies (FIG. 4), 8 week old female C57/BL6 mice were purchased from Charles River Laboratories. Mouse lung fibrosis was induced with bleomycin (BLEO; Fresenius Kabi) delivered intratracheally (3 U/kg) to the lungs using MicroSprayer® Aerosolizer (Penn-Century). The Sham mice received sterile 0.9% saline instead using identical methods. Mice were weighed every 24 hrs, and both groups were then randomized at day 10 into DHX and Control treatment groups, matching for the degree of weight change. DHX (5 mg/kg) was administered everyday intranasally (i.n.) dissolved in surfactant (infasurf) which has previously shown to aid in spreading to pulmonary aveoli for 14 days. The control groups of mice received the equivalent vehicle dose of surfactant. Following the final DHX treatment, mice were sacrificed and the right lungs were inflated with 4% paraformaldehyde (PFA) and further incubated in 4% PFA for 24 hours prior processing for paraffin embedding. The left lobe of the lung was snap frozen in liquid nitrogen for RNA isolation and hydroxyproline assay. Experimental procedures were approved by the Mayo Clinic Institutional Animal Care and Use Committee and the animals were handled in accordance with their guidelines.
Histological Scoring: Five μm thick sections were cut from Paraffin embedded lung tissues, and the sections were stained either with hematoxylin and eosin (H&E) or with Masson's Trichrome stain kit (Abcam). All H&E-stained slides and trichrome-stained slides were reviewed in a blinded fashion by a thoracic pathologist. The severity of interstitial and peribronchiolar lung immature and mature fibrosis was estimated on a numerical scale according to Ashcroft et al. For scoring purposes, all H&E stained slides were systematically scanned at 100× magnification and successive 100× fields were scored. Scoring was based on the following scale: 0 (no fibrosis), 1 (minimal interstitial and/or peribronchiolar thickening due to fibrosis), 3 (moderate thickening without obvious architectural distortion), 5 (increased fibrosis with formation of fibrous bands and/or small masses), 7 (severe architectural distortion with large areas of fibrosis and areas of honeycomb changes), and 8 (total fibrous obliteration of the field). The predominant score for each field was recorded. The mean of all scores was calculated for each case. […]

[1] = bleomycin mice, 5 mg/kg once daily i.n., day 24

Q: With `Oc1cc2c(cc1O)[C@H]1c3ccccc3CN[C@@H]1CC2` (racemic) [Dihydrexidine, dihydrexidine] as the compound, how does the “lung remodeling in the absence of fibrosis (body weight, histology, collagen, gene expression)” value (Sham DHX mice, identical time course and route) read?
A: Its value is “did not differ from those of control mice”.

Q: What about the weight change (bleomycin mice, 5 mg/kg once daily i.n. from Day 10) of the same compound?
A: Its weight change is “lost significantly less weight”.

Q: And the “lung histology (Ashcroft, blinded pathologist)” value [1]?
A: Its value is “nearly completely protected from lung remodeling”.

Q: And the “staining for YAP and TAZ in the lungs” value [1]?
A: Its value is “attenuated by DHX treatment”.

Q: And the “total collagen in the lungs (hydroxyproline)” value [1]?
A: Its value is “nearly identical to sham treated mice”.

Q: What about the “transcript levels of Acta2, Ctgf, Fn1, Col1a1, Col1a2, Yap and Taz in lung” value [1] of the same compound?
A: Its value is “significantly attenuated”.
